Assay results taken from patent US9856507B2, “Method for screening food ingredients and food compositions” (JAPANESE FOUNDATION FOR CANCER RESEARCH, priority 2013, dated 2018).

Experiments:
liver cancer [1] = experiment: Liver cancer development in DMBA-treated mice fed high-fat diets, antibiotic in drinking water; assay type: in vivo; details: dissected at 30th week; antibiotic from 13 weeks old; compared with control
Source text: An acetone solution containing 0.5% of the carcinogenic substance DMBA (7,12-dimethylbenz[a]anthracene) was applied once to the backs of wild-type (C57BL/6) neonatal mice. The neonatal mice were raised together with their mother mouse by feeding with normal diets (ND) or high-fat diet (HFD) until 4 weeks old. The high-fat diets used were D12492 (Rodent Diet with 60% kcal % Fat; Research Diets, Inc., USA). The neonatal mice were weaned at 4 weeks old and subsequently raised with normal diets or high-fat diet. At 30 weeks old, their livers and lungs were excised, and the presence or absence of cancer development was analyzed. The average body weight of the mice at the time of dissection was 33 g for the mice fed normal diets and 51 g for the mice fed high-fat diets. The mice fed high-fat diets had approximately 1.5 times the body weights of the mice fed normal diets.
DMBA was applied to wild-type neonatal mice, followed by high-fat diet feeding. From 13 weeks old, an antibiotic cocktail (4Abx, antibiotic cocktail administration group) or vancomycin (VCM, vancomycin administration group) mixed with drinking water was administered to the mice. At the 30th week after the start of the raising, their livers were excised, and liver cancer development was analyzed. […]
The mice of each group were dissected at the 30th week, and liver cancer development was analyzed (FIGS. 4C and 4D).

gut microbiota = experiment: Gut microbiota analysis by PCR of 16S rRNA gene from feces; assay type: in vivo, mice
Experimental: Next, alteration in gut microbiota caused by antibiotic administration conducted in Example 3 will be shown. In the experimental schedule shown in FIG. 4A, 3 groups were used: a group fed normal diets, a group fed high-fat diets, and a group fed high-fat diets and also given vancomycin. The gut microbiota was analyzed.
The gut microbiota was identified by PCR analysis (Non Patent Literatures 11 and 12). Specifically, DNA was extracted from the feces and purified. The gene encoding 16S rRNA in many types of bacteria was amplified by PCR using universal primers. The V1-V4 hypervariable regions were further amplified, followed by identification.

intestinal bacteria = experiment: Level of gene encoding intestinal bacterial 16S rRNA after antibiotic administration; assay type: in vivo, mice; details: 17 weeks after antibiotic administration, 30 weeks after birth; high-fat diet, drinking water
Experimental: DMBA was applied to wild-type neonatal mice, followed by high-fat diet feeding. From 13 weeks old, an antibiotic cocktail (4Abx, antibiotic cocktail administration group) or vancomycin (VCM, vancomycin administration group) mixed with drinking water was administered to the mice. At the 30th week after the start of the raising, their livers were excised, and liver cancer development was analyzed. On the other hand, the raising of a control group was continued in the same way as the aforementioned raising up to the 13th week. The antibiotic cocktail contained ampicillin (1 g/l), neomycin (1 g/l), metronidazole (1 g/l), and vancomycin (500 mg/l). Also, in the case of administering vancomycin alone, 500 mg/l was administered.

liver cancer [2] = experiment: Liver cancer induction by oral deoxycholic acid in mice fed high-fat diets and given antibiotic cocktail; assay type: in vivo; details: 40 μg/g body weight orally three times a week; HFD + antibiotic cocktail; n=3
Experimental: From the 13th week after the start of the raising, the antibiotic cocktail was administered to mice fed high-fat diets, which were then further raised. To these mice, 40 μg/g body weight of deoxycholic acid (DCA) or only a vehicle as a control was orally administered three times a week (FIG. 6A). […] The mice given deoxycholic acid developed a large number of liver tumors (indicated by Δ in the diagram), whereas cancer development was rarely seen in the control mouse group given only the vehicle. […] The cancer was rarely developed in the control mouse group given only the vehicle, and even if the cancer was developed, its tumor size was small. On the other hand, the deoxycholic acid administration group had multiple cancer (25 or more tumors per individual), and also, its size was large.

Row | SMILES | liver cancer development (tumor number and size) (liver cancer [1]) | Gram-negative microbiota, average (gut microbiota; HFD+VCM group, on average (FIG. 5)) [%] | cluster XI of the genus Clostridium (gut microbiota; high-fat diet plus vancomycin group, n=2) [%] | amount of intestinal bacteria (level of gene encoding 16S rRNA) (intestinal bacteria) | tumor size (liver) (liver cancer [2]) | tumors per individual (liver) (liver cancer [2])
1 | CN[C@H](CC(C)C)C(=O)N[C@H]1C(=O)N[C@@H](CC(N)=O)C(=O)N[C@H]2C(=O)N[C@H]3C(=O)N[C@H](C(=O)N[C@H](C(=O)O)c4cc(O)cc(O)c4-c4cc3ccc4O)[C@H](O)c3ccc(c(Cl)c3)Oc3cc2cc(c3O[C@@H]2O[C@H](CO)[C@@H](O)[C@H](O)[C@H]2O[C@H]2C[C@](C)(N)[C@H](O)[C@H](C)O2)Oc2ccc(cc2Cl)[C@H]1O [vancomycin] | developed no liver cancer or developed liver cancer with a smaller tumor number and a smaller size as compared with the control | 99 | 0 | decreased into a very small level |  | 
2 | C[C@H](CCC(=O)O)[C@H]1CC[C@H]2[C@@H]3CC[C@@H]4C[C@H](O)CC[C@]4(C)[C@H]3C[C@H](O)[C@]12C [deoxycholic acid] |  |  |  |  | large | ≥ 25
